Active and inactive are the calls of the source.
Legend:
BGC-823 = experiment: Cytotoxicity against human BGC823 cells at 10 uM after 96 hrs by MTT assay; type: functional, cell-based
Liver microsomes = experiment: Antioxidant activity in rat liver microsome assessed as inhibition of FeSO4-induced lipid peroxidation at 10 uM incubated for 15 mins prior to FeSO4-challenge measured after 15 mins by modified thiobarbituric acid method; type: functional
HCT-8 = experiment: Cytotoxicity against human HCT8 cells at 10 uM after 96 hrs by MTT assay; type: functional, cell-based
KETR3 = experiment: Cytotoxicity against human Ketr3 cells at 10 uM after 96 hrs by MTT assay; type: functional, cell-based
Bel-7402 = experiment: Cytotoxicity against human Bel7402 cells at 10 uM after 96 hrs by MTT assay; type: functional, cell-based
[1] = test system: Peritoneal macrophage cell; experiment: Antiinflammatory activity in mouse peritoneal macrophages assessed as inhibition of nitric oxide production at 10 uM; type: functional, cell-based
MCF7 = experiment: Cytotoxicity against human MCF7 cells at 10 uM after 96 hrs by MTT assay; type: functional, cell-based
A549 = experiment: Cytotoxicity against human A549 cells at 10 uM after 96 hrs by MTT assay; type: functional, cell-based
WB-F344 = experiment: Hepatoprotective activity against DL-galactosamine-induced cell death in rat WB-F344 cells at 10 uM incubated for 1 hr prior to DL-galactosamine-challenge measured after 24 hrs by MTT assay; type: functional, cell-based

CCN1C[C@]2(COC)[C@H](O)C[C@H](OC)[C@]34C1[C@H]([C@H](OC)[C@H]23)[C@@]1(OC(C)=O)C[C@H](OC)[C@@]2(O)C[C@]4(O)[C@@H]1[C@H]2OC(=O)c1ccccc1
inactive: Activity (BGC-823) | inhibition (Liver microsomes) | Activity (HCT-8) | Activity (KETR3) | Activity (Bel-7402) | inhibition [1] | Activity (MCF7) | Activity (A549) | Activity (WB-F344)

CCN1C[C@]2(COC)CC[C@H](OC)[C@]34C1[C@H]([C@H](O)[C@H]23)[C@]1(O)[C@H]2[C@@H](OC(=O)c3ccccc3)[C@H](C[C@H]24)[C@@H](OC)[C@@H]1O
inactive: Activity (BGC-823) | inhibition (Liver microsomes) | Activity (HCT-8) | Activity (KETR3) | Activity (Bel-7402) | inhibition [1] | Activity (MCF7) | Activity (A549) | Activity (WB-F344)

CCN1C[C@]2(COC)CC[C@H](OC)[C@]34C1[C@H]([C@H](OC)[C@H]23)[C@]1(OC)[C@H]2[C@@H](OC(=O)c3ccccc3)[C@](O)(C[C@H]24)[C@@H](OC)[C@@H]1O (single isomer, unassigned; (-))
inactive: Activity (BGC-823) | inhibition (Liver microsomes) | Activity (HCT-8) | Activity (KETR3) | Activity (Bel-7402) | inhibition [1] | Activity (MCF7) | Activity (A549) | Activity (WB-F344)

CCN1C[C@]2(COC)CC[C@H](OC)[C@]34C1[C@H](C[C@H]23)[C@]1(O)[C@H]2[C@@H](OC(=O)c3ccccc3)[C@](O)(C[C@H]24)[C@@H](OC)[C@@H]1O
inactive: Activity (BGC-823) | inhibition (Liver microsomes) | Activity (HCT-8) | Activity (KETR3) | Activity (Bel-7402) | inhibition [1] | Activity (MCF7) | Activity (A549) | Activity (WB-F344)

COC[C@]12CN(C)C3[C@@H]4[C@H](OC)[C@H]1[C@@]3([C@@H](OC)C[C@H]2O)[C@]1(O)C[C@@]2(O)[C@H](OC(=O)c3ccccc3)[C@@H]1[C@]4(O)[C@@H](O)[C@@H]2OC
inactive: Activity (BGC-823) | inhibition (Liver microsomes) | Activity (HCT-8) | Activity (KETR3) | Activity (Bel-7402) | inhibition [1] | Activity (MCF7) | Activity (A549) | Activity (WB-F344)

CCN1C[C@]2(COC)CC[C@H](OC)[C@]34C1[C@H](C[C@H]23)[C@]1(O)[C@H]2[C@@H](OC(=O)c3ccccc3)[C@H](C[C@H]24)[C@@H](OC)[C@@H]1O
inactive: Activity (BGC-823) | inhibition (Liver microsomes) | Activity (HCT-8) | Activity (KETR3) | Activity (Bel-7402) | inhibition [1] | Activity (MCF7) | Activity (A549) | Activity (WB-F344)

C=C1C[C@]23C4[C@@H](OC(=O)[C@@H](C)CC)[C@H]1[C@@H](O)[C@H]2[C@]12C[C@@H](OC(=O)CC)C[C@]5(C)[C@H]1[C@H]([C@@H]3O)[N+](C)([C@H]42)[C@H]5O
inactive: Activity (BGC-823) | inhibition (Liver microsomes) | Activity (HCT-8) | Activity (KETR3) | Activity (Bel-7402) | inhibition [1] | Activity (MCF7) | Activity (A549) | Activity (WB-F344)

COC[C@]12CN(C)C3[C@@H]4[C@H](OC)[C@H]1[C@@]3([C@@H](OC)C[C@H]2OC(C)=O)[C@@H]1C[C@@]2(O)[C@H](OC(=O)c3ccccc3)[C@@H]1[C@]4(O)[C@@H](OC(C)=O)[C@@H]2OC
inactive: Activity (BGC-823) | inhibition (Liver microsomes) | Activity (HCT-8) | Activity (KETR3) | Activity (Bel-7402) | inhibition [1] | Activity (MCF7) | Activity (A549) | Activity (WB-F344)

CCN1C[C@]2(COC)CC[C@H](OC)[C@]34C1[C@H]([C@H](OC)[C@H]23)[C@@]1(O)C[C@H](OC)[C@@]2(O)C[C@@H]4[C@@H]1[C@H]2OC(=O)c1ccccc1
inactive: Activity (BGC-823) | inhibition (Liver microsomes) | Activity (HCT-8) | Activity (KETR3) | Activity (Bel-7402) | inhibition [1] | Activity (MCF7) | Activity (A549) | Activity (WB-F344)

CCN1C[C@]2(COC)CC[C@H](O)[C@]34C1[C@H](C[C@H]23)[C@]1(O)[C@H]2[C@@H](OC(=O)c3ccccc3)[C@H](C[C@H]24)[C@@H](OC)[C@@H]1O
inactive: Activity (BGC-823) | inhibition (Liver microsomes) | Activity (HCT-8) | Activity (KETR3) | Activity (Bel-7402) | inhibition [1] | Activity (MCF7) | Activity (A549) | Activity (WB-F344)

COC[C@]12CN(C)C3[C@@H]4[C@H](OC)[C@H]1[C@@]3([C@@H](OC)C[C@H]2O)[C@]1(O)C[C@@]2(O)[C@H](OC(=O)c3ccccc3)[C@@H]1[C@]4(OC)[C@@H](O)[C@@H]2OC (stereo in doubt; 7)
inactive: Activity (BGC-823) | inhibition (Liver microsomes) | Activity (HCT-8) | Activity (KETR3) | Activity (Bel-7402) | inhibition [1] | Activity (MCF7) | Activity (A549) | Activity (WB-F344)

CCN1C(=O)[C@]2(COC)CC[C@H](OC)[C@]34C1[C@H]([C@H](OC)[C@H]23)[C@]1(OC(C)=O)[C@H]2[C@@H](OC(=O)c3ccccc3)[C@](O)(C[C@H]24)[C@@H](OC)[C@@H]1O
inactive: Activity (BGC-823) | inhibition (Liver microsomes) | Activity (HCT-8) | Activity (KETR3) | Activity (Bel-7402) | inhibition [1] | Activity (MCF7) | Activity (A549) | Activity (WB-F344)

C=C1C[C@]23C4[C@@H](OC(=O)[C@@H](C)CC)[C@H]1[C@@H](O)[C@H]2[C@]12C[C@@H](OC(=O)C(C)C)C[C@]5(C)[C@H]1[C@H]([C@@H]3O)[N+](C)([C@H]42)[C@H]5O
inactive: Activity (BGC-823) | inhibition (Liver microsomes) | Activity (HCT-8) | Activity (KETR3) | Activity (Bel-7402) | inhibition [1] | Activity (MCF7) | Activity (A549) | Activity (WB-F344)

CCN1C[C@]2(COC)[C@H](O)C[C@H](OC)[C@]34C1[C@H]([C@H](OC)[C@H]23)[C@]1(OC)[C@H]2[C@@H](OC(=O)c3ccccc3)[C@](O)(C[C@]24O)[C@@H](OC)[C@@H]1O
inactive: Activity (BGC-823) | inhibition (Liver microsomes) | Activity (HCT-8) | Activity (KETR3) | Activity (Bel-7402) | inhibition [1] | Activity (MCF7) | Activity (A549) | Activity (WB-F344)

CCN1C[C@]2(COC)CC[C@H](O)[C@]34C1[C@H]([C@H](OC)[C@H]23)[C@]1(O)[C@H]2[C@@H](OC(=O)/C=C/c3ccccc3)[C@H](C[C@H]24)[C@@H](OC)[C@@H]1O
inactive: Activity (BGC-823) | inhibition (Liver microsomes) | Activity (HCT-8) | Activity (KETR3) | Activity (Bel-7402) | inhibition [1] | Activity (MCF7) | Activity (A549) | Activity (WB-F344)

— ChEMBL document CHEMBL2062504, “Diterpenoid alkaloids from the lateral root of Aconitum carmichaelii” (J Nat Prod, 2012)
